Measured values taken from article PMC10590056, “Design and synthesis of cabotegravir derivatives bearing 1,2,3-triazole and evaluation of anti-liver cancer activity” (Frontiers in Pharmacology, 2023).
Several values for one entry are separate records, joined by “and”; a condition that tells them apart may be missing. Equal values may be shown once. Read-outs that look alike come from different tables or passages of the source.

Tests used:
Format in all cases: cell-based
HepG2 cells [1] = experiment: Transwell migration assay (without Matrigel); conditions: HepG2, 24 h treatment, vs control
Protocol: (§1) HepG2 cells were treated with either KJ-5 or KJ-12 for 24 h. Then, the cells were suspended and seeded into the upper chamber of a 24-well Transwell plate (Corning Inc., United States) in serum-free medium. The cells were cultured for 24 h at 37°C; a medium containing 20% FBS as a chemoattractant was added to the lower chamber. HepG2 cells that had invaded through the membrane were fixed with 4% paraformaldehyde for 20 min and stained with 0.1% crystal violet. Five random fields were then imaged and quantified using an inverted fluorescence microscope (Axio Observer3, Germany). To assess invasion, transwell assays were performed in a similar manner, with the exception of coating the upper chamber of the Transwell with 100 μL of diluted Matrigel solution per well.

HepG2 cells [2] = experiment: Cell cycle analysis (PI, flow cytometry); conditions: 24 h; for Percentage of cells in the S phase (change vs control): HepG2, 2-8 μM
Protocol: HepG2 cells were seeded in a 6-well plate at a density of 5 × 10^6 cells/well and treated with either KJ-5 or KJ-12 at concentrations of 2, 4, or 8 μM for 24 h. Cells were then collected and responded in […] of cold PBS. Subsequently, 700 μL of cold 70% ethanol was added to the cells and gently mixed by inversion on ice for 1 h. Cells were then centrifuged at 2,000 rpm for 10 min, washed once with 2 mL of cold PBS, and the supernatant was discarded. The cell pellet was resuspended in 250 μL of cold PBS, followed by the addition of 10 μL of RNase at a final concentration of 0.4 mg/mL and incubated at 37°C for 30 min. An additional 250 μL of PBS was added, followed by the addition of 5 μL of PI solution at a final concentration of 10 μg/mL. The samples were incubated […] in the dark overnight at 4°C. Finally, the samples were analyzed by flow cytometry.

HepG2 cells [3] = experiment: DAPI staining for cell apoptosis (morphology); conditions: HepG2, 2, 4, 8 μM, 24 h
Protocol: Apoptotic morphological changes were determined by DAPI staining. HepG2 cells were seeded in a 48-well plate and treated with different concentrations of KJ-5 and KJ-12 (2, 4, and 8 μM) for 24 h. After 24 h, they were then washed with PBS and fixed with 4% paraformaldehyde for 20 min. Subsequently, they were then washed with PBS and treated with DAPI (10 μg/mL) at 37°C for 5 min. After washing with PBS, the cells were resuspended in PBS for the rest of the experiment. A fluorescence microscope was used to observe the apoptotic morphological changes.

HepG2 cells [4] = experiment: Annexin V-FITC/PI staining for cell apoptosis (flow cytometry); conditions: 24 h; for Proportion of apoptotic cells: Annexin-V/PI; for Cell apoptosis (in words): HepG2, 2, 4, 8 μM
Protocol: HepG2 cells were plated in a 6-well plate at a density of 5 × 10^6 cells/well and incubated for 24 h. Then, the original culture medium was replaced with 2 mL DMEM containing KJ-5 or KJ-12 (2, 4, and 8 μM) and incubated for 24 h. After incubation with KJ-5 or KJ-12, the cells were washed with cold PBS and then resuspended in 100 µL binding buffer at a concentration of 1 × 10^6 cells/mL. Then, 5 μl of FITC Annexin V and 5 µl of PI were added to the solution. The cells were gently vortexed and incubated for 15 min at room temperature (25°C) in the dark. Subsequently, 400 µL binding buffer was added to each tube, and the samples were analyzed by flow cytometry (BD Accuri™ C6 Plus) within 1 h.

HepG2 cells [5] = experiment: Transwell invasion assay (Matrigel); conditions: HepG2, 24 h treatment, vs control
Protocol: as §1

HepG2 cells [6] = experiment: MTT assay for cell proliferation and cytotoxicity, HepG2; design: key to Inhibitory rate: inhibition rate = 1 - mean A490 sample/mean A490 control (fraction); conditions: for Inhibitory rate / ODtreated/ODcontrol / inhibition at 4 µM: HepG2; for Inhibitory rate / ODtreated/ODcontrol: fraction, per experiment; for inhibition at 4 µM / IC50 / inhibition at 16 µM: Homo sapiens; for inhibition at 4 µM: liver cancer cells, read-out: Inhibition rate on liver cancer cells; for IC50: HepG2, 48 h, MTT; for inhibition at 16 µM: preliminary screening, HepG2, 16 μM, 48 h, mean±SD, unit inferred, read-out: Inhibition rate (16μM), 48 h, HepG2
Protocol: (§2) HepG2, HeLa, MCF-7, and KYSE-30 cells were grown in a humidified incubator at 37°C with 5% CO2 in DMEM supplemented with 10% fetal bovine serum (FBS), […] streptomycin, and 100 U/mL penicillin.
(§3) When HepG2 cells reached 80% confluence, they were treated with 1 mL of trypsin and resuspended at a density of 10^5 cells/mL. Then, 100 μL of cell suspension was seeded into each well of a 96-well plate and incubated in a humidified atmosphere. The different concentrations of KJ-5 and KJ-12 (0, 1, 2, 4, 8, 16, and 32 μM) were added to each well, and the cells were further incubated for 48 h. Afterward, 20 μL of the MTT solution (5 mg/mL) was added to each well, and incubation was continued for another 4 h. The supernatant was discarded, and 200 μL of the DMSO solution was added to each well. The plate was shaken for 10 min in the dark. The absorbance values were measured at 490 nm using an enzyme-linked detector. The cell inhibition rate (%) was calculated using the following formula: (1-Mean A490 sample/Mean A490 control) × 100%.

HeLa cells = experiment: MTT assay for cell proliferation, HeLa; design: key to Inhibitory rate: inhibition rate = 1 - mean A490 sample/mean A490 control (fraction); conditions: for inhibition at 16 µM: preliminary screening, mean±SD, read-out: Inhibition rate (16μM), 48 h, Hela
Protocol: as §2, §3

[7] = Hela, group 1 (concentration), fraction, single experiments
[8] = Hela, group 1 (concentration), single experiments
[9] = Hela, group 2 (concentration), fraction, single experiments
[10] = Hela, group 2 (concentration), single experiments
[11] = Hela, group 4 (concentration), fraction, single experiments
[12] = Hela, group 4 (concentration), single experiments
[13] = Hela, group 8 (concentration), fraction, single experiments
[14] = Hela, group 8 (concentration), single experiments
[15] = Hela, group 16 (concentration), fraction, single experiments
[16] = Hela, group 16 (concentration), single experiments
[17] = Hela, group 32 (concentration), fraction, single experiments
[18] = Hela, group 32 (concentration), single experiments
[19] = Hela, one of three experiments, unit inferred, read-out: IC50, single experiment, Hela
[20] = Homo sapiens, HeLa, 48 h, HeLa, 48 h, MTT, read-out: IC50 HeLa
[21] = Homo sapiens, HeLa, one of three experiments, unit inferred, read-out: IC50, single experiment, Hela
[22] = Homo sapiens, Hela, 48 h, unit inferred

SMILES	Migration of HepG2 cells (transwell without Matrigel) (HepG2 cells [1])	Percentage of cells in the G1 phase (HepG2 cells [2]; HepG2, 2 μM)	Percentage of cells in the G2/M phase (HepG2 cells [2]; HepG2, 2 μM)	Percentage of cells in the G1 phase (HepG2 cells [2]; HepG2, 4 μM)	Percentage of cells in the G2/M phase (HepG2 cells [2]; HepG2, 4 μM)	Percentage of cells in the G1 phase (HepG2 cells [2]; HepG2, 8 μM)	Percentage of cells in the G2/M phase (HepG2 cells [2]; HepG2, 8 μM)	Percentage of cells in the S phase (change vs control) (HepG2 cells [2])	Apoptotic morphological changes, DAPI staining (HepG2 cells [3])	Proportion of apoptotic cells (HepG2 cells [4]; HepG2, 2 μM)	Proportion of apoptotic cells (HepG2 cells [4]; HepG2, 4 μM)	Proportion of apoptotic cells (HepG2 cells [4]; HepG2, 8 μM)	Cell apoptosis (in words) (HepG2 cells [4])	Invasion of HepG2 cells (transwell with Matrigel) (HepG2 cells [5])	Inhibitory rate (HepG2 cells [6])	ODtreated/ODcontrol (HepG2 cells [6])	inhibition at 4 µM (HepG2 cells [6])	IC50 (HepG2 cells [6])	inhibition at 16 µM (HepG2 cells [6])	Inhibitory rate (HeLa cells; [7])	also measured
COc1c2n(cc(C(=O)Nc3cccc(-c4cn(-c5cc(C(F)(F)F)cc(C(F)(F)F)c5)nn4)c3)c1=O)C[C@H]1OC[C@H](C)N1C2=O [KJ-5]	significantly impaired	21.2%	50.4%	15%	58.3%	13.5%	62.6%	did not change significantly	cell shrinkage, nuclear condensation, and chromatin fragmentation	21.8 ± 1.3%	30.9 ± 1.4%	52.7 ± 1.7%	significantly caused cell apoptosis in a concentration-dependent manner	significantly impaired	0.8445 and 0.8592 and 0.8525	0.1555 and 0.1408 and 0.1475	~50%	4.29 ± 0.1 µM	85.21 ± 0.73%	0.2915 and 0.2462 and 0.2143	ODtreated/ODcontrol (HeLa cells; [8]): 0.7085 and 0.7538 and 0.7857; Inhibitory rate (HeLa cells; [9]): 0.3879 and 0.3569 and 0.2882; ODtreated/ODcontrol (HeLa cells; [10]): 0.6121 and 0.6431 and 0.7118; Inhibitory rate (HeLa cells; [11]): 0.418 and 0.3669 and 0.3302; ODtreated/ODcontrol (HeLa cells; [12]): 0.582 and 0.6331 and 0.6698; Inhibitory rate (HeLa cells; [13]): 0.5915 and 0.5007 and 0.5011; ODtreated/ODcontrol (HeLa cells; [14]): 0.4085 and 0.4993 and 0.4989; Inhibitory rate (HeLa cells; [15]): 0.834 and 0.8197 and 0.8242; ODtreated/ODcontrol (HeLa cells; [16]): 0.166 and 0.1803 and 0.1758; Inhibitory rate (HeLa cells; [17]): 0.8525 and 0.86 and 0.8737; ODtreated/ODcontrol (HeLa cells; [18]): 0.1475 and 0.14 and 0.1263; IC50 (HeLa cells; [19]): 5.87 µM; Inhibitory rate (HeLa cells; Hela, fraction, per experiment): 0.8059 and 0.7883 and 0.7664; ODtreated/ODcontrol (HeLa cells; Hela, fraction, per experiment): 0.1941 and 0.2117 and 0.2336; IC50 (HeLa cells; [20]): 5.02 ± 0.94 µM; IC50 (HeLa cells; [21]): 5.16 µM; inhibition at 16 µM (HeLa cells; [22]): 79.4 ± 1.04%
COc1c2n(cc(C(=O)Nc3cccc(-c4cn(-c5c(C)cc(C)cc5C)nn4)c3)c1=O)C[C@H]1OC[C@H](C)N1C2=O [KJ-12]	significantly impaired	47.4%	22.2%	25%	47.5%	16.4%	59.7%	remained unchanged substantially	cell shrinkage, nuclear condensation, and chromatin fragmentation	21.2 ± 1.4%	30.5 ± 1.1%	44.4 ± 1.9%	significantly caused cell apoptosis in a concentration-dependent manner	significantly impaired	0.742 and 0.7786 and 0.787	0.258 and 0.2214 and 0.213	~50%	4.07 ± 0.09 µM	76.9 ± 2.4%	0.2971 and 0.2883 and 0.2551	ODtreated/ODcontrol (HeLa cells; [8]): 0.7029 and 0.7117 and 0.7449; Inhibitory rate (HeLa cells; [9]): 0.3155 and 0.3221 and 0.3198; ODtreated/ODcontrol (HeLa cells; [10]): 0.6845 and 0.6779 and 0.6802; Inhibitory rate (HeLa cells; [11]): 0.3594 and 0.3533 and 0.3688; ODtreated/ODcontrol (HeLa cells; [12]): 0.6406 and 0.6467 and 0.6312; Inhibitory rate (HeLa cells; [13]): 0.7153 and 0.627 and 0.5661; ODtreated/ODcontrol (HeLa cells; [14]): 0.2847 and 0.373 and 0.4339; Inhibitory rate (HeLa cells; [15]): 0.7226 and 0.7292 and 0.7302; ODtreated/ODcontrol (HeLa cells; [16]): 0.2774 and 0.2708 and 0.2698; Inhibitory rate (HeLa cells; [17]): 0.7312 and 0.7755 and 0.8162; ODtreated/ODcontrol (HeLa cells; [18]): 0.2688 and 0.2245 and 0.1838; IC50 (HeLa cells; [19]): 5.49 µM and 4.82 µM; Inhibitory rate (HeLa cells; Hela, fraction, per experiment): 0.7218 and 0.7353 and 0.6986; ODtreated/ODcontrol (HeLa cells; Hela, fraction, per experiment): 0.2782 and 0.2647 and 0.3014; IC50 (HeLa cells; [20]): 5.17 ± 0.34 µM; IC50 (HeLa cells; [21]): 5.19 µM; inhibition at 16 µM (HeLa cells; [22]): 71.9 ± 1.86%
